Source: US20250025451A1, “TREATMENT OF CANCER WITH KDM4 INHIBITORS” (Celgene Corporation, priority 2021, published 2025)
Values after ≈ are worked out from the molar mass of the structure shown. Where two headings read alike, the source gives them in different places.

How the values were obtained:
[1] = test system: erythroid hematopoietic progenitor cells derived from human bone marrow; assay: erythroid colony formation of hematopoietic progenitor cells; format: cell-based; conditions: 336 h, human bone marrow progenitor cells
Description: (§1) Compound 1 was evaluated for its effects on proliferation of erythroid and myeloid hematopoietic progenitor cells derived from human bone marrow at […] Technologies Inc. (Vancouver, BC, Canada).
(§2) Cells were thawed rapidly at 37° C. into DNAse I and then diluted in 10 mL of Iscove's Modified Dulbecco's medium containing 2% fetal bovine serum (IMDM+2% FBS) and washed by centrifugation (1200 rpm for 10 minutes at room temperature). The supernatant was discarded and the cell pellet resuspended in a known volume of IMDM+2% FBS. A nucleated cell count (3% glacial acetic acid) and viability assessment (trypan blue exclusive test) were performed.
(§3) Compound 1 and positive control (panobinostat) were diluted in DMSO and tested at concentrations ranging from 0.002 μM to 5 μM in final media. These dilutions provided the appropriate final test concentrations required for the test and control articles ([…], and 0.002 μM).
(§4) Test and control articles were incubated with human bone marrow hematopoietic progenitor cells. After 14 days, cell colonies were assessed.
(§5) To calculate the concentration of 50% and 90% inhibition of colony growth (IC50 and IC90) for each test article, a dose response curve was generated plotting the log of the test article concentration versus the percentage of control colony growth using GraphPad Prism. […] The IC50 and IC90 values for both test and control articles were derived from an interpolation of the curve fit. In cases where the IC50/90 value reported by GraphPad Prism is a value beyond the range of concentrations that were actually tested, if this value is more than 4 times the highest concentration tested, or where GraphPad Prism cannot calculate an IC50/90 value, notations of >5 μM (for test article compound 1) are used.

[2] = test system: myeloid hematopoietic progenitor cells derived from human bone marrow; assay: myeloid colony formation of hematopoietic progenitor cells; format: cell-based; conditions: 336 h, human bone marrow progenitor cells
Description: as §1, §2, §3, §4, §5

- IC50 ([1]; 14 days, read-out: IC50, inhibition of erythroid colony formation): < 10 nM
- IC50 ([2]; 14 days, read-out: IC50, inhibition of myeloid colony formation): < 10 nM
Compound: Cc1[nH]c2ccccc2c1CCNCc1ccc(/C=C/C(=O)NO)cc1 [Panobinostat, reference compound]
- IC90 ([1]; colony growth after 14 days): 7.5 ng/mL (≈ 0.0215 µM)
- IC50 ([1]; colony growth after 14 days, read-out: Erythroid IC50): 6.4 ng/mL
- IC90 ([2]; colony growth after 14 days): 8.1 ng/mL (≈ 0.0232 µM)
- IC50 ([2]; colony growth after 14 days, read-out: Myeloid IC50): 7.4 ng/mL
